The text below walks through data of patent US11344542B2, “Treatment of aging-associated disease with modulators of leukotriene A4 hydrolase” (Alkahest, Inc., priority 2018, dated 2022).

The test system of one assay is hippocampal mRNA levels. Description: qPCR of hippocampal mRNA levels in aged mice treated with inhibitors. The assay is classed as in vivo, mouse. The note with it: PO daily for 4 weeks, vs vehicle. The procedure:
(§1) Brains were collected following saline perfusion and separated by mid-sagittal slice with one-half drop fixed in freshly prepared 4% PFA. PFA was changed to 30% sucrose 24-48 hours later. A second change to 30% sucrose occurred 24 hours later. The second half was dissected into hippocampus and cortex and then snap frozen on dry ice.
(§2) Brain tissue was sectioned or lysed and analyzed for markers of neurogenesis and aging by standard histological and biochemical methods, including qRT-PCR, Western blot, ELISA, and immunohistochemistry.
(§3) Nineteen-month-old (19 mo) wild type (WT; C57BL/6) mice were homogenized into five (5) groups by body weight, total distance travelled in the open field test, and average velocity in the open field test. Group 1 was administered 10% EtOH control PO daily for 4 weeks, Group 2 was administered 5 mg/kg of SC-57461A LTA4H dual inhibitor PO daily for 4 weeks; Group 3 was administered 10 mg/kg of CP-105,696 LTB4 receptor (BLTR) antagonist PO daily for 4 weeks, Group 4 was administered 10 mg/kg of Montelukast cysteinyl receptor (CysLTR) antagonist daily for 4 weeks, and Group 5 was administered 10 mg/kg of pinostilbene hydrate daily for 4 weeks. During Week 4 of treatment all groups were tested using open field, radial arm water maze, and Y-maze. During Week 5 animals were sacrificed, and tissues collected for histological and biochemical analysis.

A further assay concerns LTB4. Description: Plasma LTB4 by ELISA in aged mice treated with inhibitors. The assay is classed as in vivo, mouse. The following applies: terminal plasma, PO daily for 4 weeks, vs vehicle. The protocol:
On the final day of dosing, mice were deeply anesthetized with Avertin (250 mg/kg IP). The mice are subjected to cardiac puncture and blood samples were collected using syringes pre-filled with EDTA or heparin. Blood was either subjected to calcimycin stimulation assay or separated into plasma by centrifugation. Plasma from each mouse was aliquoted and stored at −80° C.
The concentration of mouse LTB4, the product of LTA4H enzyme hydrolysis activity, was measured using commercially-available LTB4 parameter assay kits (R&D Systems and Enzo). Blood samples were collected by cardiac puncture into pre-filled syringes with EDTA and injected into a microcentrifuge tube. The plasma was separated by centrifugation at 1000 g for 15 minutes at 4 C. Alternatively, blood was subjected to a calcimycin stimulation assay to increase the production of LTB4 prior to plasma collection. All plasma was stored at −80 C until measurement of LTB4 levels. LTB4 levels were measured from the plasma from 4-15 individual young (3 month, 3M) or aged (22.5 month, 22.5M) wild-type mice (WT; C57BL/6).
Nineteen-month-old (19 mo) wild type (WT; C57BL/6) mice were homogenized into five (5) groups by body weight, total distance travelled in the open field test, and average velocity in the open field test. […]

The target of another assay is T1, LTA4H (Homo sapiens, UniProt P09960).
T1 sequence (P09960 1-611): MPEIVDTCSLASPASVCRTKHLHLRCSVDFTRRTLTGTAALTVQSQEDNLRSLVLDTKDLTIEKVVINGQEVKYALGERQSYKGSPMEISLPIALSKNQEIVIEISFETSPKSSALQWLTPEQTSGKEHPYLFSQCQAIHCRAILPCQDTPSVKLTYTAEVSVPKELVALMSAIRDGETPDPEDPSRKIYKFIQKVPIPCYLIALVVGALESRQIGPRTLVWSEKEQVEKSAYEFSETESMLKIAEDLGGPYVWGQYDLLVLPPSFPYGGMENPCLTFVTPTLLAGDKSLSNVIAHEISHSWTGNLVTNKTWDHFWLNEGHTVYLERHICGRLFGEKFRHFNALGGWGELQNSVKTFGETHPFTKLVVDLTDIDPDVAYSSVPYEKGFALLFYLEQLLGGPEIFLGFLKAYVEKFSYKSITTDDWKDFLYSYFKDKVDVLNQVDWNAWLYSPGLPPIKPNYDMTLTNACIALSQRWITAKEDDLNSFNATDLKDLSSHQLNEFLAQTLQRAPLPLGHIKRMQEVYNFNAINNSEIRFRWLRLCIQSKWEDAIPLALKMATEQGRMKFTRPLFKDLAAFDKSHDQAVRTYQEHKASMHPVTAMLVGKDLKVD
The following applies: in vitro; Low et al., Sci Rep 2017; cited from earlier work.

Assay [1] concerns aquaporin 4 (AQP4) in the hippocampus. Put plainly: Aquaporin 4 (AQP4) immunofluorescence in the hippocampus of aged mice. Type of assay: in vivo, mouse. The note with it: 10 mg/kg PO daily for 4 weeks. The protocol: as §1, §2, §3
The subject of assay [2] is nineteen-month-old wild type (C57BL/6) mice. Description: Y-maze in aged mice treated with inhibitors. The assay is classed as in vivo, mouse. The note with it: PO daily for 4 weeks, SC 5 mg/kg, CP 10 mg/kg. The procedure: A large Y-maze test assessed short-term memory of the familiarity of a specific context. Mice were brought to the experimental room for at least 30 min of acclimation to the experimental room conditions (dim lighting) prior to testing. For the initial training trial, the mouse was placed at the end of one arm of a large Y-maze designated “start arm” (arm length: 15 inches). The third arm of the maze was blocked off, allowing the mouse to explore two of the three arms freely (“start arm” and “familiar arm”) for 5 min. Each arm contained spatial cues. Three hours later, the mouse was placed back into the maze in the “start arm,” and allowed to explore all three arms with the third arm unblocked (“novel arm”). Movements in and out of each arm were tracked using automated tracking software (CleverSys or San Diego Instruments). Testing was performed under dim lighting, and the apparatus was cleaned with 70% ethanol between trials. The time spent and number of entireties into the “novel arm” and “familiar arm” were analyzed, as well as total distance travelled and velocity as measures of general locomotor activity.
Recombinant human LTA4H (Bio-techne, 4008-SN) was buffer-exchanged into sterile PBS and dosed at 4.6 ug/150 uL by tail vein i.v. injection. SC-57461A (Cayman Chemical, 423169-68) stock solution was prepared at 10 mg/mL in DMSO. […]

Assay [3] shares this test system. Description: Radial arm water maze in aged mice treated with inhibitors. Type of assay: in vivo, mouse. The protocol:
The water maze (see, e.g. Alamed J, et al., Two-day radial-arm water maze learning and memory tasks; robust resolution of amyloid-related memory deficits in transgenic mice., Nat. Protoc., 1(4):1671-79 (2006)), was filled with water at least 24 hours prior to the test to equilibrate to 25° C. The water was dyed with white latex paint to make the animals visible for tracking and to allow for the use of a hidden platform. Eight distinct visual cues were placed at the end of each of eight arms of the RAWM inserts. On day 1 animals were subjected to 5 trials each with a visible platform and a 30-minute inter-trial interval. Animals had 60 seconds to reach the platform. […] The goal arm remained constant and a different start arm was randomly assigned for each of the 5 trials so that mouse started in every arm once except for the two arms directly across from the platform. The goal arm was switched after every two mice and balanced between all treatment groups. After each trial the mice were placed in an empty cage with blue pads and allowed to dry off under a heat lamp before being placed back into their home cage. Testing day was 48 hours after training, when animals were subjected to the same test of 5 trials each and a 30-minute inter-trial interval, but with a hidden platform Animals were scored for the number of errors (entry into a non-goal arm) and for latency to reach the platform. All trials were recorded using TopScan software (CleverSys, Inc., Reston, Va.).
Recombinant human LTA4H (Bio-techne, 4008-SN) was buffer-exchanged into sterile PBS and dosed at 4.6 ug/150 uL by tail vein i.v. injection. SC-57461A (Cayman Chemical, 423169-68) stock solution was prepared at 10 mg/mL in DMSO. Stock solution was diluted into sterile PBS immediately prior to p.o. dosing to a final concentration of 10% DMSO and 1 mg/mL SC-57461A. Mice were p.o. dosed at 5 mg/kg. CP-105,696 (Sigma, PZ0363), Pinostilbene hydrate (Sigma, SML0098), and Montelukast (Cayman Chemical, 10008318) stock solutions were prepared at 30 mg/mL in EtOH/Solutol. […]

Where [4] appears, read: hidden platform testing phase, compared to vehicle mice.

“Also recorded” adds a separate entry of the source.

`COc1cc(O)cc(/C=C/c2ccc(O)cc2)c1` [pinostilbene hydrate]: the “TNFα hippocampal mRNA expression (qPCR)” value with hippocampal mRNA levels was “significant decrease”. Also, the “plasma concentration of LTB4 measured by ELISA” value with LTB4 was “did not detect a reduction”. The “inhibition of hydrolase versus peptidase activity of LTA4H” value at LTA4H was “only inhibit the hydrolase activity and not the peptidase activity”. In addition, in assay [1], the “fluorescence intensity of AQP4 in the hippocampus immediately surrounding blood vessels (vascular)” value is “trend towards a decrease”. In assay [1] (vs vehicle, hydrate, 10 mg/kg), the “integrated optical density of aquaporin 4 (AQP4) in the hippocampus” value was “trend towards a decrease; also recorded: significant reduction”.

`CN(CCCOc1ccc(Cc2ccccc2)cc1)CCC(=O)O.Cl` [SC-57461A]: in the assay on hippocampal mRNA levels, the “IL-1β hippocampal mRNA expression (qPCR)” value is on record as “significant decrease”, the “IL-6 hippocampal mRNA expression (qPCR)” value is on record as “significant decrease”, the “TNFα hippocampal mRNA expression (qPCR)” value is on record as “significant decrease” and the “aqp4 hippocampal mRNA expression (qPCR)” value was “significant decrease”. Also, in the assay with hippocampal mRNA levels, the “h2d1 hippocampal mRNA expression (qPCR)” value is listed as “significant decrease” and the “timp1 hippocampal mRNA expression (qPCR)” value was “trend towards a decrease”. Besides, the “plasma concentration of LTB4 measured by ELISA” value in the assay on LTB4 was “reduces”. In addition, the “preference for the novel versus familiar arm in Y-maze (percentage of entries)” value in assay [2] was “trend towards preference for the novel arm”. In addition, the “hippocampus-dependent spatial memory in radial arm water maze” value in assay [3] (aged mice, PO daily for 4 weeks, SC 5 mg/kg, Montelukast 10 mg/kg) is listed as “improvement”. Moreover, in assay [3] (setting [4]), the “latency to find the platform in radial arm water maze” value was “significantly shorter latency” and the “number of errors in radial arm water maze” value was “fewer errors”.

As for `O=C(O)C1(c2ccc3c(c2)OC[C@H](Cc2ccc(-c4ccccc4)cc2)[C@H]3O)CCCC1` [CP-105,696], the “preference for the novel versus familiar arm in Y-maze (percentage of entries)” value in assay [2] was “statistically significant preference for the novel arm”.
